Laboratory results reported in US20230330109A1, “COMPOUND FOR PREVENTING AND TREATING LIVER DISEASES AND PHARMACEUTICAL USE THEREOF” (CHENGDU BIOBEL COMPANY LIMITED, priority 2020, published 2023).
Counter-ions that a name gives are not always drawn.

Assays:
Type in all cases: in vivo
male C57BL/6N mice [1] = experiment: Serum biochemical indexes in MCD diet FLD mice (Experimental Example 1); design: AST / ALT / ALP: unit not given here; details: for decrease rate of ALP / decrease rate of ALT / decrease rate of AST: compared with the model group, dosages as in Table 1; for ALP / ALT / AST: serum, MCD diet mice, drug in diet for 20 days, dosage 300 mg/kg/d (I-1, HTD1801) or 150 mg/kg/d (nor-UDCA, berberine hydrochloride)
Description: (§1) 48 male C57BL/6N mice (8-week-old) were chosen, in which 8 mice were randomly divided into the blank group, fed with normal diet, while the other 40 mice were all subjected to establishing models. There was an adaptation period of 6 days before modeling. Then, mice were fed with the mixture of MCD and MCS (TROPHIC Animal Feed High-Tech Co. Ltd, Nantong, Jiangsu, China, TP3005GS, high-fat feed) in a ratio of 1:2, 1:1 and 2:1, and each ratio of diet was given to the mice for two days in the order of 1:2, 1:1 and 2:1. After that, mice were given MCD feed for 28 days (TROPHIC Animal Feed High-Tech Co. Ltd, Nantong, Jiangsu, China, TP3005G, methionine- and choline-deficient diet). On the 28th day, mice were randomly divided into five groups, namely model group, compound I-1 group, norUDCA group, berberine hydrochloride group, and HTD1801 group, eight mice for each group. After grouping, each treatment group was further fed customized MCD diet containing drugs for 20 days, while the model group was fed the same diet as the previous. All groups were fed the isocaloric diet. After the last administration on the 21st day, the mice were fasted for 16 h (but free access to water) and weighed. Then, blood was taken from the femoral artery and centrifuged to separate the serum, which was stored at low temperature of −30° C., ready for testing the biochemical indexes of the serum. In addition, the liver was taken, and two pieces of left lobe were taken for each mouse, which were placed in 10% neutral formalin solution, respectively. After treatment, liver histopathological examination was performed.

male C57BL/6N mice [2] = experiment: Hepatic fat staining in MCD diet FLD mice (Experimental Example 1); details: dosage 300 mg/kg (I-1, HTD1801) or 150 mg/kg (nor-UDCA, berberine hydrochloride)
Description: as §1

male C57BL/6N mice [3] = experiment: Liver histopathological examination in MCD diet FLD mice (Experimental Example 1); design: scale not given here; details: liver histopathology, dosage 300 mg/kg (I-1, HTD1801) or 150 mg/kg (nor-UDCA, berberine hydrochloride)
Description: as §1

male Wistar rats = experiment: Thioacetamide-induced hepatic fibrosis/cirrhosis in rats, Sirius Red fibrosis area; details: for decrease rate of fibrosis area: compared with the rat cirrhosis model group, dosages as in Table 4; for Hepatic fibrosis area (%): thioacetamide rats, oral, Sirius Red, dosage 160 mg/kg (I-1, HTD1801) or 80 mg/kg (nor-UDCA, berberine hydrochloride)
Description: 60 male Wistar rats (weighing 180-220 g) were divided into 6 groups, with 10 rats in each group, and the rats were provided by Chengdu Dossy Experimental Animal Co., Ltd. In the experiment, the compound of the present invention and the positive control drug nor-UDCA were first ground in a proper amount of Tween, and then diluted to the pre-determined concentration with 0.5% carboxymethyl cellulose (CMC) sodium.
The rat liver fibrosis model was established by inducing with thioacetamide. Rats were intraperitoneally injected with thioacetamide at a dose of 200 mg/kg, three times a week, for 12 weeks. Four weeks after induction with thioacetamide, the compound of the present invention was orally administered to the test groups, while the blank group and the model group were given the same amount of CMC suspension. Among them, every morning, rats in each test group were given 160 mg/kg of compound I-1, 80 mg/kg of nor-UDCA, 80 mg/kg of berberine hydrochloride, and 160 mg/kg of positive control HTD1801. After experiment, all rats were euthanized, and their livers were taken out.
The liver tissue was fixed with 10% formaldehyde solution and embedded in paraffin. The fixed liver tissue was sectioned with a thickness of about […], and then stained with Hematoxylin-Eosin (HE) and Sirius Red. Sirius Red staining was used for morphological analysis and to determine the percentage of liver tissue affected by its fibrosis. The image of the section was collected by using the microscopic imaging system. In order to make the results more accurate, 15 positive visual fields of Sirius Red staining were randomly selected from each slice to calculate the proportion of liver fibrosis area, which was used in statistical analysis.

Structure (SMILES)	decrease rate of ALP (male C57BL/6N mice [1]) [%]	decrease rate of ALT (male C57BL/6N mice [1]) [%]	decrease rate of AST (male C57BL/6N mice [1]) [%]	ALP (male C57BL/6N mice [1])	ALT (male C57BL/6N mice [1])	AST (male C57BL/6N mice [1])	Hepatic fat staining Scores (male C57BL/6N mice [2])	Score Edema (male C57BL/6N mice [3])	Score Inflammation cell infiltration (male C57BL/6N mice [3])	Score Necrosis (male C57BL/6N mice [3])	Score Steatosis (male C57BL/6N mice [3])	decrease rate of fibrosis area (male Wistar rats) [%]	Hepatic fibrosis area (%) (male Wistar rats)
COc1ccc2cc3[n+](cc2c1OC)CCc1cc2c(cc1-3)OCO2 [Berberine hydrochloride, berberine hydrochloride]	15.10	12.09	1.86	193.4 ± 32.9	942.4 ± 64.5	768.4 ± 38.1	1.9	1.8	1.9	2.1	2.2	15.17	15.14 ± 3.67
C[C@H](CC(=O)O)[C@H]1CC[C@H]2[C@@H]3[C@@H](O)C[C@@H]4C[C@H](O)CC[C@]4(C)[C@H]3CC[C@]12C [nor-UDCA, norursodeoxycholic acid]	12.95	21.82	20.67	198.3 ± 94.5	761.8 ± 374.2	683.4 ± 253.7	1.7	1.6	2.1	2.0	2.5	6.18	16.79 ± 5.48
COc1ccc2cc3[n+](cc2c1OC)CCc1cc2c(cc1-3)OCO2.C[C@H](CCC(=O)[O-])[C@H]1CC[C@H]2[C@@H]3[C@@H](O)C[C@@H]4C[C@H](O)CC[C@]4(C)[C@H]3CC[C@]12C [HTD1801]				188.8 ± 21.3	303.0 ± 99.1	409.9 ± 51.7	1.1	0.7	1.3	0.8	1.3		9.39 ± 1.45
